# Assay results taken from patent US12018059B2, “Human amylin analog polypeptides and methods of use” (Intarcia Therapeutics, Inc., priority 2018, dated 2024).
# Where two headings read alike, the source gives them in different places. Starred links: 1 amine or outer side, 2 acyl side, 3 side chain; linkers in the order of their positions; H or OH if unused. Positions of bridges follow the written chain, without caps; N, C: chain ends. Non-standard residues stand in square brackets, D forms with d. Residues, ends and D or L forms follow the SMILES beside them. Groups on a side chain read outwards from the residue. *: point of attachment. C20 diacid = O=C(O)CCCCCCCCCCCCCCCCCCC(=O)*; C18 diacid = O=C(O)CCCCCCCCCCCCCCCCC(=O)*; γGlu = O=C(O)[C@H](CCC(=O)[*:2])N[*:1]; AEEA = NCCOCCOCC(=O)O
# What was measured:
# [1] = target: human amylin 3 receptor (hAMY3R) (Homo sapiens, UniProt O60896+P30988); assay: cAMP accumulation functional assay in HEK293-CNG cells expressing hAMY3R; assay type: cell-based
# Chain of human amylin 3 receptor (hAMY3R) (O60896 24-148, one chain of several): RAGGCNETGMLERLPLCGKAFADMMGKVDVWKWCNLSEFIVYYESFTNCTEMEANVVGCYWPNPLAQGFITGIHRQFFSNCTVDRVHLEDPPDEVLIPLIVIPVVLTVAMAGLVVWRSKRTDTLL
# Description: (§1) In the presence of the non-specific cAMP/cGMP phosphodiesterase inhibitor 3-isobutyl-1-methylxanthine (IBMX), accumulating cAMP can be measured in vitro using common detection methods. Thus, it is possible to estimate an in vitro potency (pEC50) for peptides activating each of these receptors using fit dose-response curves for cAMP accumulation.
# (§2) Cells were carried in growth media for no more than 10 passages prior to testing.
# (§3) Peptides were serially diluted in the same buffer as above for each given assay condition. Two assay control solutions consisting of 50 mcM forskolin (cAMP system maximum) or assay buffer only (cAMP system minimum) were also prepared in the appropriate stimulation buffers. Five microliters of each peptide-concentration, or assay control was added to triplicate wells and incubated for thirty minutes at room temperature. During this incubation step a 4× europium labelled cAMP tracer solution and a 4× Ulight®-anti-cAMP solution (consisting of an anti-cAMP monoclonal antibody labelled with Ulight™ dye) was prepared according to the manufacturer's protocol (PerkinElmer LANCE Ultra cAMP kit). Following this incubation, 5 mcL europium labelled cAMP and 5 mcL Ulight anti-cAMP antibody was added to wells. The plate was covered with an adhesive cover to prevent evaporation and incubated for 60 minutes at room temperature in the dark. Plates were read on an Envision fluorescent plate reader (PerkinElmer).
# (§4) Test values were first normalized to the forskolin induced cAMP system maximum and system minimum averaged values in Excel using the formula: (test value−system minavg)/(system maxavg−system minavg)*100. Normalized test values represent a baseline corrected percentage of the system maximum cAMP response induced by forskolin. Normalized data was analyzed from triplicate tests and used to estimate the EC50 for each peptide on each receptor. Data was fit in GraphPad Prism software (v7.04) using a 4-parameter logistic curve model: Y=Bottom+(Top−Bottom)/(1+10^((Log EC50−X))). The Hill slope was constrained to 1.0. EC50 values were converted to pEC50 values using the formula: pEC50=−Log (EC50).
# [2] = in vivo; set-up: species or system Sprague-Dawley rats; details: rat, iv, 0.033 mg/kg
# Summary of the method: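 Peptide plasma levels measured by UPLC-MS/MS (C18, product-ion monitoring) after protein precipitation or WCX SPE, calibrated in K2EDTA/protease-inhibitor rat plasma. Dosing in non-fasted male Sprague-Dawley rats (n=3): 0.033 mg/kg over 1 h by IV or SC infusion, or 0.3 mg/kg SC bolus; sampling up to 48 h.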
# [3] = target: T1, human calcitonin receptor (hCTR) (Homo sapiens, UniProt P30988); assay: cAMP accumulation functional assay in HEK293-CNG cells expressing hCTR; assay type: cell-based
# T1 sequence (P30988 25-474): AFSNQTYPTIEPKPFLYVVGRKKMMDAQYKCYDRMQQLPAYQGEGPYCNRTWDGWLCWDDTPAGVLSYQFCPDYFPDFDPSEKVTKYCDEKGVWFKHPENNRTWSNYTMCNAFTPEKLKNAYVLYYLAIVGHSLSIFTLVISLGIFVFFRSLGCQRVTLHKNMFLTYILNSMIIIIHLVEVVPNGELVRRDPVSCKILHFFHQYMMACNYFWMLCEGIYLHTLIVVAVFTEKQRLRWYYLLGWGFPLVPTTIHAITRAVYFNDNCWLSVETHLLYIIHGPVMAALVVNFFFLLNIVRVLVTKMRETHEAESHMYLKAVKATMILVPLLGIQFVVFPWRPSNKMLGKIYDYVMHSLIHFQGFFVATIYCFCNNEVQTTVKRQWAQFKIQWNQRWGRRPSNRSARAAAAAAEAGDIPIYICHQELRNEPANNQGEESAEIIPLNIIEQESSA
# Description: as §1, §2, §3, §4
# [4] = 0% HSA, read-out: pEC50 hAMY3R 0% HSA (converted)
# [5] = 4% HSA, read-out: pEC50 hAMY3R 4% HSA (converted)
# [6] = pEC50 hAMY3R 0.1% HSA, 0.1% HSA
# [7] = hCTR 0% HSA, 0% HSA, read-out: pEC50 hCTR 0% HSA (converted)
# [8] = hCTR 4% HSA, 4% HSA, read-out: pEC50 hCTR 4% HSA (converted)
SMILES,"EC50 [1, 4] [nM]","EC50 [1, 5] [nM]","EC50 [1, 6] [nM]",Vd [2] [L/kg],clearance [2] [mL/h/kg],half-life [2] [h],"EC50 [3, 7] [nM]","EC50 ([3]; hCTR 0.1% HSA, 0.1% HSA) [nM]","EC50 [3, 8] [nM]"
CC[C@H](C)[C@H](NC(=O)[C@@H]1CCCN1C(=O)CNC(=O)[C@H](Cc1ccccc1)NC(=O)[C@H](CC(N)=O)NC(=O)[C@H](CC(N)=O)NC(=O)[C@H](CO)NC(=O)[C@H](CO)NC(=O)[C@H](CCCCN)NC(=O)[C@H](Cc1c[nH]cn1)NC(=O)[C@H](CC(C)C)NC(=O)[C@@H](CCCCNC(=O)CC[C@H](NC(=O)CC[C@H](NC(=O)COCCOCCNC(=O)CC[C@H](NC(=O)CCCCCCCCCCCCCCCCCCC(=O)O)C(=O)O)C(=O)O)C(=O)O)NC(=O)[C@H](CC(N)=O)NC(=O)[C@H](C)NC(=O)[C@H](CC(C)C)NC(=O)[C@H](CCCNC(=N)N)NC(=O)[C@H](CCC(N)=O)NC(=O)[C@@H](NC(=O)[C@H](C)NC(=O)[C@@H]1CSSC[C@H](NC(=O)[C@@H](N)CO)C(=O)N[C@@H](CC(N)=O)C(=O)N[C@@H]([C@@H](C)O)C(=O)N[C@@H](CO)C(=O)N[C@@H]([C@@H](C)O)C(=O)N1)[C@@H](C)O)C(=O)N[C@@H](CC(C)C)C(=O)N1CCC[C@H]1C(=O)N1CCC[C@H]1C(=O)N[C@H](C(=O)N[C@@H](CCCCN)C(=O)N[C@H](C(=O)NCC(=O)N[C@@H](CO)C(=O)N[C@@H](CCC(=O)O)C(=O)N[C@H](C(=O)N[C@@H](Cc1ccc(O)cc1)C(N)=O)[C@@H](C)O)C(C)C)[C@@H](C)O [Compound A100] (H-SCNTSTCATQRLAN[dK]([γGlu-γGlu-AEEA-γGlu-C20 diacid])LHKSSNNFGPILPPTKVGSETY-NH2; disulfide 2-7; N-terminus assumed),0.00794,25.1,1.58,0.14,4.75,21.4,0.0316,7.94,79.4
CC[C@H](C)[C@H](NC(=O)[C@@H]1CCCN1C(=O)CNC(=O)[C@H](Cc1ccccc1)NC(=O)[C@H](CC(N)=O)NC(=O)[C@H](CC(N)=O)NC(=O)[C@H](CO)NC(=O)[C@H](CO)NC(=O)[C@H](CCCCN)NC(=O)[C@H](Cc1c[nH]cn1)NC(=O)[C@H](CC(C)C)NC(=O)[C@H](CCC(=O)O)NC(=O)[C@H](CC(N)=O)NC(=O)[C@H](C)NC(=O)[C@H](CC(C)C)NC(=O)[C@H](CCCNC(=N)N)NC(=O)[C@H](CCC(N)=O)NC(=O)[C@@H](NC(=O)[C@H](C)NC(=O)[C@@H]1CSSC[C@H](NC(=O)[C@@H](N)CCCCNC(=O)CC[C@H](NC(=O)CC[C@H](NC(=O)COCCOCCNC(=O)COCCOCCNC(=O)CC[C@H](NC(=O)CCCCCCCCCCCCCCCCCCC(=O)O)C(=O)O)C(=O)O)C(=O)O)C(=O)N[C@@H](CC(N)=O)C(=O)N[C@@H]([C@@H](C)O)C(=O)N[C@@H](CO)C(=O)N[C@@H]([C@@H](C)O)C(=O)N1)[C@@H](C)O)C(=O)N[C@@H](CC(C)C)C(=O)N1CCC[C@H]1C(=O)N1CCC[C@H]1C(=O)N[C@H](C(=O)N[C@@H](CCCCN)C(=O)N[C@H](C(=O)NCC(=O)N[C@@H](CO)C(=O)N[C@@H](CCC(=O)O)C(=O)N[C@H](C(=O)N[C@@H](Cc1ccc(O)cc1)C(N)=O)[C@@H](C)O)C(C)C)[C@@H](C)O [Compound A112] (H-K([γGlu-γGlu-AEEA-AEEA-γGlu-C20 diacid])CNTSTCATQRLANELHKSSNNFGPILPPTKVGSETY-NH2; disulfide 2-7),0.00251,10,0.501,0.0998,2.45,32.6,0.0126,3.16,31.6
CC[C@H](C)[C@H](NC(=O)[C@@H]1CCCN1C(=O)CNC(=O)[C@H](Cc1ccccc1)NC(=O)[C@H](CC(N)=O)NC(=O)[C@H](CC(N)=O)NC(=O)[C@H](CO)NC(=O)[C@H](CO)NC(=O)[C@H](CCCCN)NC(=O)[C@H](Cc1c[nH]cn1)NC(=O)[C@H](CC(C)C)NC(=O)[C@H](CCC(=O)O)NC(=O)[C@H](CC(N)=O)NC(=O)[C@H](C)NC(=O)[C@H](CC(C)C)NC(=O)[C@H](CCCNC(=N)N)NC(=O)[C@H](CCC(N)=O)NC(=O)[C@@H](NC(=O)[C@H](C)NC(=O)[C@@H]1CSSC[C@H](NC(=O)[C@@H](N)CCCCNC(=O)COCCOCCNC(=O)COCCOCCNC(=O)CC[C@H](NC(=O)CCCCCCCCCCCCCCCCC(=O)O)C(=O)O)C(=O)N[C@@H](CC(N)=O)C(=O)N[C@@H]([C@@H](C)O)C(=O)N[C@@H](CO)C(=O)N[C@@H]([C@@H](C)O)C(=O)N1)[C@@H](C)O)C(=O)N[C@@H](CC(C)C)C(=O)N1CCC[C@H]1C(=O)N1CCC[C@H]1C(=O)N[C@H](C(=O)N[C@@H](CCCCN)C(=O)N[C@H](C(=O)NCC(=O)N[C@@H](CO)C(=O)N[C@@H](CCC(=O)O)C(=O)N[C@H](C(=O)N[C@@H](Cc1ccc(O)cc1)C(N)=O)[C@@H](C)O)C(C)C)[C@@H](C)O [Compound A113] (H-K([AEEA-AEEA-γGlu-C18 diacid])CNTSTCATQRLANELHKSSNNFGPILPPTKVGSETY-NH2; disulfide 2-7),,1,0.0251,,,,0.00501,0.2,7.94
CC[C@H](C)[C@H](NC(=O)[C@@H]1CCCN1C(=O)CNC(=O)[C@H](Cc1ccccc1)NC(=O)[C@H](CC(N)=O)NC(=O)[C@H](CC(N)=O)NC(=O)[C@H](CO)NC(=O)[C@H](CO)NC(=O)[C@H](CCCCN)NC(=O)[C@H](Cc1c[nH]cn1)NC(=O)[C@H](CC(C)C)NC(=O)[C@H](CCC(=O)O)NC(=O)[C@H](CC(N)=O)NC(=O)[C@H](C)NC(=O)[C@H](CC(C)C)NC(=O)[C@H](CCCNC(=N)N)NC(=O)[C@H](CCC(N)=O)NC(=O)[C@@H](NC(=O)[C@H](C)NC(=O)[C@@H]1CSSC[C@H](NC(=O)[C@@H](N)CCCCNC(=O)CC[C@H](NC(=O)CCCCCCCCCCCCCCCCCCC(=O)O)C(=O)O)C(=O)N[C@@H](CC(N)=O)C(=O)N[C@@H]([C@@H](C)O)C(=O)N[C@@H](CO)C(=O)N[C@@H]([C@@H](C)O)C(=O)N1)[C@@H](C)O)C(=O)N[C@@H](CC(C)C)C(=O)N1CCC[C@H]1C(=O)N1CCC[C@H]1C(=O)N[C@H](C(=O)N[C@@H](CCCCN)C(=O)N[C@H](C(=O)NCC(=O)N[C@@H](CO)C(=O)N[C@@H](CCC(=O)O)C(=O)N[C@H](C(=O)N[C@@H](Cc1ccc(O)cc1)C(N)=O)[C@@H](C)O)C(C)C)[C@@H](C)O [Compound A119] (H-K([γGlu-C20 diacid])CNTSTCATQRLANELHKSSNNFGPILPPTKVGSETY-NH2; disulfide 2-7; N-terminus assumed),0.00126,3.16,0.0631,,,,0.00631,0.316,12.6
